Measurements: US6512004B2, “Promoters of neural regeneration” (The Regents of the University of California, priority 1998, dated 2003)

What was measured:
Assay type in all cases: cell-based
[1] = system: growth cones of the cultured Xenopus spinal neuron; test: Growth cone turning in a Sema III gradient; conditions: for growth cone turning response in Sema III gradient with agent in culture medium: Sema III 50 μg/ml in the pipette, 8-br-cGMP 100 μM, Sp-cGMPS 10 μM, PP-9 10 μM, SNAP 300 μM, Rp-cGMPS 10 μM, cAMPS analogues 20 μM, one-hour exposure
Method: Collapsin-1/Semaphorin III/D (Sema III), a diffusible member of the semaphorin family can repel or cause collapse of growth cones in culture (6). […] We analyzed the effect of a microscopic gradient of Sema III on growth cones of the cultured Xenopus spinal neuron (8). Sema III-containing saline was applied in pulses from a micropipette positioned 100 μm from the center of the growth cone and at a 45° angle with respect to the original direction of neurite extension. […] The repulsive response was dose-dependent with a minimal response occurring at an effective concentration of about 10 ng/ml at the growth cone (8). Heat-inactivated Sema III was ineffective (FIG. 1A). […] The rate of neurite extension was unaffected by the presence of the Sema III gradient.
(§1) 8. Dissociated Xenopus spinal neurons were prepared as described (4,5). Isolated spinal neurons were used for experiments at room temperature (22°-24° C.) 14-22 hour after plating. Sema III was purified from conditioned medium of stable 293-EBNA cell lines secreting Sema III-AP as described (17). To inactivate Sema III activity, the supernatant containing Sema III-AP was heated at 85° C. for 45 minutes [J. Fan and J. A. Raper, Neuron 14, 263 (1995)]. Microscopic gradients of diffusible factors were produced as described (4,5). The average concentration of factors at the growth cone was about 10^3-fold lower than that in the pipette [A. M. Lohof, M. Quilian, Y. Dan and M-m. Poo, J. Neurosci. 12, 1253 (1992)], and a concentration gradient of 5-10% was created across a growth cone 10 μm wide, 100 μm away from the tip of the ejecting pipette. The original direction of neurite growth was defined by the last 10-μm segment of the neurite. The turning angle was defined by the angle between the original direction of neurite extension and a straight line connecting the positions of the growth cone at the onset and the end of the one hour period. Only growth cones with a net extension >5 μm over the one-hour period were scored.
10. M. A. Schwarzschild and R. E. Zigmond, J. Neurochem. 56, 400 (1991). Pharmacological agents were added to the culture medium at least 30 minutes before the gradient was applied and were present during the experiments. The final concentrations of pharmacological agents in the medium were listed.

[2] = system: rat dorsal root ganglion (DRG) axons; test: Growth cone collapse assay with Sema III on DRG explants
Method: 21. DRG explants derived from E14 rat embryos were cultured with 25 ng/ml NGF on plates precoated with poly-D-lysine and laminin for 20 hours before experiments as described (17). Pharmacological agents were added an hour before the collapse assay. The collapse assay was performed on sensory axons from these explants using Sema III-AP-containing medium essentially as described (17). For visualization, growth cones were stained with rhodamine-phalloidin, then washed and mounted.

[3] = system: growth cones of Xenopus spinal neurons; test: Growth cone turning in a rMAG gradient
Description: To examine whether the responses to other repulsive factors can be converted, we studied myelin-associated glycoprotein (MAG), a component of myelin and an inhibitor of axonal regeneration (22). […] However, the repulsion by rMAG was not affected by the addition of 8-br-cGMP. […] Thus the turning response induced by rMAG can be modulated by cAMP-dependent activities. This is reminiscent of the turning responses induced by gradients of BDNF and netrin-1 (4,5), although the latter factors are normally attractive and are converted to repulsive by inhibition of cAMP-dependent activities.
as §1
10. M. A. Schwarzschild and R. E. Zigmond, J. Neurochem. 56, 400 (1991). Pharmacological agents were added to the culture medium at least 30 minutes before the gradient was applied and were present during the experiments. […]

## CC(=O)N[C@H](C(=O)O)C(C)(C)SN=O (racemic) [S-Nitroso-N-acetylpenicillamine]
[1]
  growth cone turning response in Sema III gradient with agent in culture medium: abolished the repulsive turning response without causing a significant attractive response

## Nc1ncnc2c1ncn2[C@@H]1O[C@@H]2COP(O)(=S)O[C@H]2[C@H]1O (some centres unmarked) [Sp-cAMPS]
[2]; agent added an hour before the collapse assay
  inhibition of the collapsing activity of Sema III: not
[2]; without Sema III
  effect of agent alone on growth cones: no detectable effect
[3]; rMAG 150 μg/ml in the pipette, 8-br-cGMP 100 μM, Sp-cAMPS 20 μM
  growth cone turning response in rMAG gradient with agent in medium: converted to attraction
[1]; 8-br-cGMP 100 μM plus Rp-cAMPS or Sp-cAMPS 20 μM
  conversion of the Sema III turning response in the presence of 8-br-cGMP: not

## Nc1nc2c(ncn2[C@@H]2O[C@@H]3COP(O)(=S)O[C@H]3[C@H]2O)c(=O)[nH]1 (some centres unmarked) [Sp-cGMPS]
[1]
  growth cone turning response in Sema III gradient with agent in culture medium: nearly all growth cones turned toward rather than away from the pipette

B1: Sema III: a diffusible member of the semaphorin family, purified from conditioned medium of 293-EBNA cell lines (protein, UniProt Q14563 21-771, looked up)
Semaphorin-3A: NYQNGKNNVPRLKLSYKEMLESNNVITFNGLANSSSYHTFLLDEERSRLYVGAKDHIFSFDLVNIKDFQKIVWPVSYTRRDECKWAGKDILKECANFIKVLKAYNQTHLYACGTGAFHPICTYIEIGHHPEDNIFKLENSHFENGRGKSPYDPKLLTASLLIDGELYSGTAADFMGRDFAIFRTLGHHHPIRTEQHDSRWLNDPKFISAHLISESDNPEDDKVYFFFRENAIDGEHSGKATHARIGQICKNDFGGHRSLVNKWTTFLKARLICSVPGPNGIDTHFDELQDVFLMNFKDPKNPVVYGVFTTSSNIFKGSAVCMYSMSDVRRVFLGPYAHRDGPNYQWVPYQGRVPYPRPGTCPSKTFGGFDSTKDLPDDVITFARSHPAMYNPVFPMNNRPIVIKTDVNYQFTQIVVDRVDAEDGQYDVMFIGTDVGTVLKVVSIPKETWYDLEEVLLEEMTVFREPTAISAMELSTKQQQLYIGSTAGVAQLPLHRCDIYGKACAECCLARDPYCAWDGSACSRYFPTAKRRTRRQDIRNGDPLTHCSDLHHDNHHGHSPEERIIYGVENSSTFLECSPKSQRALVYWQFQRRNEERKEEIRVDDHIIRTDQGLLLRSLQQKDSGNYLCHAVEHGFIQTLLKVTLEVIDTEHLEELLHKDDDGDGSKTKEMSNSMTPSQKVWYRDFMQLINHPNLNTMDEFCEQVWKRDRKQRRQRPGHTPGNSNKWKHLQENKKGRNRRTHEFERAPRSV
[1]; in the presence of the Sema III gradient
  rate of neurite extension: unaffected
[1]; normal medium
  effective concentration at the growth cone for minimal repulsive response: about 10 ng/ml
[1]; normal medium, pipette 100 μm from growth cone, 45° angle
  growth cone turning induced by the factor gradient: Most growth cones grew away from the pipette
[1]; up to 100 μg/ml of Sema III in the pipette
  collapse of growth cones: No obvious collapse of growth cones

B2: rMAG: recombinant protein consisting of the extracellular domain of MAG (protein, UniProt P07722 20-516, looked up)
extracellular domain: GHWGAWMPSSISAFEGTCVSIPCRFDFPDELRPAVVHGVWYFNSPYPKNYPPVVFKSRTQVVHESFQGRSRLLGDLGLRNCTLLLSTLSPELGGKYYFRGDLGGYNQYTFSEHSVLDIINTPNIVVPPEVVAGTEVEVSCMVPDNCPELRPELSWLGHEGLGEPTVLGRLREDEGTWVQVSLLHFVPTREANGHRLGCQAAFPNTTLQFEGYASLDVKYPPVIVEMNSSVEAIEGSHVSLLCGADSNPPPLLTWMRDGMVLREAVAESLYLDLEEVTPAEDGIYACLAENAYGQDNRTVELSVMYAPWKPTVNGTVVAVEGETVSILCSTQSNPDPILTIFKEKQILATVIYESQLQLELPAVTPEDDGEYWCVAENQYGQRATAFNLSVEFAPIILLESHCAAARDTVQCLCVVKSNPEPSVAFELPSRNVTVNETEREFVYSERSGLLLTSILTLRGQAQAPPRVICTSRNLYGTQSLELPFQGAHRLMWAKIGP
modifications: extracellular domain
notes: recombinant protein consisting of the extracellular domain of MAG
[3]; normal medium
  growth cone turning induced by the rMAG gradient: repelled growth cones
